PubChem BioAssay AID743395 (Broad Institute, 2014)

Tested on: HepG2 viability, CellTiter-Glo ATP luminescence, 72 h
Experiment: viability loss in human hepatoma cells – cell-based, CellTiter-Glo luminescence, cherry-pick, set 2, cytotoxicity control, dose response (AID 743395)

SMILES	AC35
CC(=NNC(=O)c1ccncc1)c1ccc2ccccc2c1O	2.59 µM
COc1ccc(COc2cc(-c3cccc(OC)c3)nc3ccc(NC(=O)c4ccc(OC)cc4)cc23)cc1	7.56 µM
COc1ccc(NC(=O)c2nc(C)c(C3(C)CC(c4ccccc4)=NO3)s2)cc1 (centres undefined)	17.1 µM
CN(C)CCCNc1c2ccccc2nc2ccccc12	0.794 µM
CC(C)CN(CCCNC(=O)CN1C(=O)CSc2ccc(S(=O)(=O)N3CCOCC3)cc21)CC(C)C	6.21 µM
COc1ccc(CNC(=O)c2c(C)oc3c2C(=O)c2ccccc2C3=O)cc1	2.36 µM
COc1cccc(S(=O)(=O)N2C[C@@H]3N[C@H](C2)C3c2ccc(-c3ccccc3F)cc2)c1 (some centres undefined)	11.3 µM
CCCCNC(=O)C(=O)Nc1ccc2c(c1)N(S(=O)(=O)c1cccs1)CCC2	12.7 µM
CCC(=O)N1CC2(CCN(Cc3ccc(Cl)cc3)CC2)c2c([nH]c3cc(OC)ccc23)[C@H]1CO	9.3 µM
COc1cc(-c2nccc3cc4c(cc23)OCO4)cc(OC)c1OC	5.6 µM
CCCCNc1c(-c2ccc(SC(C)CC)c(OC)c2)nc2ccc(C)cn12 (centres undefined)	13.6 µM
Cc1ccc(/C=N/NC(=O)c2c(-c3ccccc3)noc2C)c(O)c1	18.4 µM
COc1cccc(N=Nc2ccc3cccnc3c2O)c1	4.42 µM
c1coc(-c2nc3ccccc3s2)c1	7.04 µM
CC(=O)NC(c1ccc2ccccc2c1)c1ccc2cccnc2c1O (centres undefined)	0.641 µM
Oc1ccc2ccccc2c1/C=C/c1ccc2c(Br)cc(Br)c(O)c2n1	9.42 µM
N=C1/C(=C/c2cccn2CCOc2ccccc2)C(=O)N=C2SC=C(c3ccccc3)N12	19.3 µM
COc1cccc(/C=N/NC(=O)C(=O)Nc2ccccc2OC(F)(F)C(F)F)c1O	15 µM
CC(=O)NC(c1ccc(C(C)C)cc1)c1ccc2cccnc2c1O (centres undefined)	0.861 µM
Cc1ccc(C2(C)NC(=O)N(CC(=O)Nc3nc(-c4ccccn4)cs3)C2=O)cc1 (centres undefined)	4.46 µM
COc1cccc(Nc2nc(-c3sc(NC(=O)c4ccccc4)nc3C)cs2)c1	6.58 µM
CC(=O)Nc1cccc(-c2ccnc3c2CC(C)(C(=O)NCc2cccs2)O3)c1 (centres undefined)	2.49 µM
Cc1ccccc1-c1nc(CS(=O)(=O)CC(=O)NCc2ccccc2)c(C)o1	18.4 µM
CCCCC(=NCCc1c(C)[nH]c2ccc(OC)cc12)C1=C(O)CC(c2ccccc2)CC1=O (centres undefined)	8.11 µM
NS(=O)(=O)c1ccc(CCNc2nn3c(-c4cccc(OC(F)(F)F)c4)cnc3s2)cc1	16.7 µM
Cc1ccc(C2NC(=O)c3ccccc3N2)c(C)c1 (centres undefined)	13.8 µM

SMILES	AC35
C=C1C(=O)O[C@@H]2C[C@@H](C)[C@@H]3C=CC(=O)[C@@]3(C)[C@@H](O)[C@H]12	2.99 µM
Cc1nc(/N=C(\N)NC(=O)NC2CCCCC2)nc2ccccc12	20.2 µM
N#C[C@H]1[C@H](c2ccc(C3=CCCCC3)cc2)[C@@H](CO)N1C(=O)NC1CCCCC1	10.3 µM
COc1ccc(C2=NOC(C(=O)NCc3ccc(F)cc3)C2)cc1OC (centres undefined)	7.73 µM
C[C@H]1CN([C@@H](C)CO)C(=O)c2cccc(NC(=O)Nc3ccc(C(F)(F)F)cc3)c2O[C@H]1CN(C)C(=O)NC1CCCCC1	11.2 µM
O=C1CN(S(=O)(=O)Cc2ccccc2)C[C@@H]2[C@@H](c3ccc(C#Cc4cccc(F)c4)cc3)[C@H](CO)N12	14.1 µM
O=C1OCC2=C1C(c1ccc3c(c1)OCO3)c1cc3c(cc1O2)OCO3 (centres undefined)	3.26 µM
Cc1ccc(C(=O)N/N=C/c2cc(Br)ccc2O)cn1	17.8 µM
CC(=NNC(=S)N1CC2CCC(CC2)C1)c1cnccn1	0.171 µM
Nc1ccc2ccc3cccc[n+]3c2c1	21.5 µM
O=C(NCCOc1ccccc1)c1cc([N+](=O)[O-])ccc1N1CCOCC1	6.79 µM
Cc1cccc(NS(=O)(=O)c2ccc(-c3cnc(C4CC4)o3)cc2)c1	5.11 µM
Cc1cc(NCc2ccccn2)n2ncc(-c3ccccc3)c2n1	7.75 µM
O=C1NC(=O)C(=Cc2c(Cl)cccc2Cl)C(=O)N1	22.2 µM
C#Cc1cc(N2CCN(C(=O)c3ccoc3)CC2)n2nc(-c3cccc(Cl)c3)cc2n1	7.94 µM
COc1cccc(-c2cnc3c(NC(C)=O)cc(-c4cc(F)ccc4OC)cn23)c1	12.5 µM
OC[C@@H]1CN(Cc2ccc(-c3ccccc3)cc2)C[C@H](n2cnc3c(NC4CC4)ncnc32)O1	19.3 µM
CC(C)n1cc(/C=C/c2cc[n+](C)cc2)c2ccccc21	11.2 µM
COc1ccccc1NC(=S)NN=C(C)c1ccccn1	0.0927 µM
COc1cc2c(-c3ccccc3)c(C)oc2cc1/C=N/NC(N)=S	6.29 µM
CC1=C/C(=C\C=C(C#N)C#N)N(C)c2ccccc21	21.3 µM
Cc1cccc(NC(=S)N/N=C/c2cccc(O)c2)c1C	12.2 µM
CN1c2ccc(-c3ccc(F)cc3)cc2[C@H]2[C@H](CCN2S(=O)(=O)c2cccc(F)c2)[C@@H]1CO	17.3 µM
Cc1ccc(-c2ccc3c(c2)O[C@@H](CN(C)Cc2ccccn2)[C@H](C)CN([C@H](C)CO)S3(=O)=O)cc1	15.3 µM
CCOC(=O)c1cc2c(=Cc3ccc(N(C)C)cc3)c3ccccc3n2[n+]1C	16.6 µM
COc1ccc2sc3cccc(NCCN(C)C)c3c(=O)c2c1	10.4 µM

SMILES	AC35
O=C(CCc1ccccc1)NCC(c1ccco1)N1CCc2ccccc21 (centres undefined)	16.7 µM
CC(C)N1CCc2c(sc(NC(=O)c3ccc([N+](=O)[O-])o3)c2C(N)=O)C1	4.77 µM
Clc1ccc2c(c1)-c1ccccc1C1=NCCN12	3.06 µM
CCN1CCN(c2cc(C)c3cc(NC(=O)c4ccc(OC)c(OC)c4)ccc3n2)CC1	12.4 µM
COc1ccc(N2CCc3c(C)nc4c(OC)cc(OC)cc4c32)cc1	9.38 µM
CC[n+]1c(-c2ccccc2)c2cc(N)ccc2c2ccc(N)cc21	21.5 µM
C[C@H]1CN([C@@H](C)CO)S(=O)(=O)c2ccc(-c3ccc(C#N)cc3)cc2O[C@@H]1CN(C)Cc1ccccn1	5.26 µM
COc1cc2c(C#CCCO)c(-c3ccsc3)oc(=O)c2cc1OC	21 µM
Cc1ccc2[nH]c(-c3ccccc3)cc(=O)c2c1	5.6 µM
C[C@@H]1CN([C@@H](C)CO)C(=O)c2cc(NS(=O)(=O)c3ccc(Cl)cc3)ccc2O[C@@H]1CN(C)Cc1ccc(C(F)(F)F)cc1	16.4 µM
CCN(CC)CCCNc1nc2ccccc2c2nc(-c3ccncc3)nn12	7.23 µM
Cc1ccc(CNC(=O)c2ccc3c(=O)c(O)c(-c4ccc(C)cc4)[nH]c3c2)cc1	1.9 µM
COc1ccccc1C#Cc1ccc2c(c1)O[C@@H](CN(C)Cc1cccnc1)[C@H](C)CN([C@H](C)CO)S2(=O)=O	22.4 µM
CC(C)(C)N(Cc1ccccc1)C(=O)c1cc2ccccc2o1	16.1 µM
Cc1ccc(S(=O)(=O)Nc2ccc3c(c2)CC(=O)N([C@@H](C)CO)C[C@@H](C)[C@@H](CN(C)Cc2ccc(Cl)c(Cl)c2)O3)cc1	10.3 µM
CCN(CC)CCn1nc2c3c(cccc3c1=O)-c1ccccc1-2	2.82 µM
Nc1nc(Cl)nc2c1ncn2C1CC(O)C(CO)O1 (centres undefined)	4.65 µM
O=C(Nc1cccc(F)c1)N1CCCCN2[C@@H](CO)[C@H](c3ccc(C#Cc4ccccc4)cc3)[C@@H]2C1	9.45 µM
CCOC(=O)c1c(NC(=O)C(=O)N/N=C/c2ccccc2O)sc2c1CCCCC2	13.7 µM
COc1ccc2noc3c2c1C(=O)c1ccccc1-3	15.4 µM
O=C(Nc1cccc(C2=NCCN2)c1)Nc1cccc(C2=NCCN2)c1	5.69 µM
Cc1cc(NCc2ccccn2)n2nc(C)c(-c3ccccc3)c2n1	10 µM
COc1c(O)cc2c(c1OC)-c1ccc(OC)c(=O)cc1C(NC(C)=O)CC2 (centres undefined)	0.453 µM
Cc1nc(N)[nH]c(=O)c1CCCNS(=O)(=O)c1ccc([N+](=O)[O-])cc1	17.1 µM
COc1ccc([N+](=O)[O-])cc1Nc1c2ccccc2nc2ccccc12	18.4 µM
c1ccc(CCNc2nc(-c3ccccn3)nc3ccccc23)cc1	4.46 µM

SMILES	AC35
Cc1cccc(N2CCN(Cc3cn(C)nc3-c3ccccc3F)CC2)n1	3.97 µM
CN(C)CCn1c2ccccc2c2nc3ccc([N+](=O)[O-])cc3cc21	20.8 µM
C[C@H](CO)N1C[C@H](C)[C@@H](CN(C)Cc2ccc(Cl)c(Cl)c2)Oc2ccc(NC(=O)Nc3ccc(C(F)(F)F)cc3)cc2CC1=O	10.5 µM
COC1C(C)OC(OC2CC(C)(O)Cc3cc4c(c(O)c32)C(=O)c2c(O)cc3c(c2C4=O)OC2OC3(C)C(O)C(N(C)C)C2O)C(OC)C1(C)OC (centres undefined)	5.03 µM
COc1ccc2c3c([nH]c2c1)[C@@H](CO)N(C(=O)C1CCOCC1)CC31CCN(Cc2cccc(F)c2)CC1	1.04 µM
O=S(=O)(Nc1cc(Sc2cccc3cccnc23)c(O)c2ccccc12)c1ccccc1	7.49 µM
CCOc1ccc(C(=O)O/N=C(\N)c2ccccn2)cc1	16.5 µM
COc1ccc(C(=O)NCCN(C)C)c2nc3ccccc3cc12	2.81 µM
O=[N+]([O-])c1ccc(/C=C/C2=NN(c3ccccc3)C(c3ccco3)C2)o1 (centres undefined)	15.1 µM
Oc1ccc2ccccc2c1C=NNc1ccccn1	7.59 µM
COc1ccc(C2=Nn3c(nnc3-c3ccccc3OC)SC2)cc1OC1CCOC1 (centres undefined)	7.54 µM
CN1c2ccc(-c3ccc(F)cc3)cc2[C@H]2[C@H](CCN2S(=O)(=O)c2cccc(F)c2)[C@H]1CO	17.2 µM
COCCCN=C1NN=C(c2cc(C)n(Cc3ccco3)c2C)CS1	6.71 µM
CC1=NN(c2ccccc2)C(=O)C1N=Nc1cccc(O)c1 (centres undefined)	19 µM
CCCC(=O)NC1=C(Cl)C(=O)c2ccccc2C1=O	9.76 µM
CCSC(=O)N1c2ccc(OC)cc2C=CC1C#N (centres undefined)	7.54 µM
Cc1cccc(N2CCN(C(=O)c3ccc4[nH]c(C)c(C)c4c3)CC2)c1C	2.5 µM
O=c1ccc2c(-c3ccccc3)c3ccc(O)cc3oc-2c1	17.8 µM
Nc1ccn([C@@H]2O[C@H](CO)[C@@H](O)[C@@H]2O)c(=O)n1	7.89 µM
COC(C(=O)C(O)C(C)O)C1Cc2cc3cc(OC4CC(OC5CC(O)C(O)C(C)O5)C(O)C(C)O4)c(C)c(O)c3c(O)c2C(=O)C1OC1CC(OC2CC(OC3CC(O)C(OC)C(C)O3)C(O)C(C)O2)C(O)C(C)O1 (centres undefined)	0.148 µM
O=C(c1cccc(F)c1)N1CC[C@@H]2[C@H](CO)Nc3ccc(-c4ccccc4F)cc3[C@@H]21	18.1 µM
COC(=O)c1ccc(/C=C/c2c(-c3ccc(OC)cc3)oc3ccc(N4CCOCC4)cc23)cc1	16 µM
COc1ccc(CCNc2c3ccccc3nc3ccccc23)cc1OC	6.93 µM
COc1ccc2[nH]c(C(=O)N/N=C/c3ccc(O)cc3O)cc2c1	3.37 µM
COc1ccc(CC(=O)NCc2ccc(-n3cccc3)cc2)cc1OC	9.29 µM
C1CCC(C(CC2CCCCN2)C2CCCCC2)CC1 (centres undefined)	6.26 µM
